Earlier results in patent US12291505B2, “Methods for the synthesis of deuterated dextromethorphan” (AVANIR PHARMACEUTICALS, INC., priority 2016, dated 2025).

How the values were obtained:
[1] = biological target: norepinephrine transporter (Homo sapiens, UniProt P23975); details: read-out: Ki, norepinephrine transporter affinity
[2] = biological target: N-methyl-D-aspartate (NMDA) receptor; details: weak uncompetitive antagonist
sigma-1 = sigma-1 (Homo sapiens, UniProt Q99720); details: read-out: Ki, sigma-1; sigma-1 agonist
sigma-1, sequence (Q99720 whole entry): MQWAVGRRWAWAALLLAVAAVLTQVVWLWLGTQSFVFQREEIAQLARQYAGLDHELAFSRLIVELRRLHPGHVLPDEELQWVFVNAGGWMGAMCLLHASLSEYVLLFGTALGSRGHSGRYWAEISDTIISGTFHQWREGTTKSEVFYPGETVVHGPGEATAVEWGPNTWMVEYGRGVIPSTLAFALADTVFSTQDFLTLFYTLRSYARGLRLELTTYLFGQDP

uptake of norepinephrine = details: read-out: Ki, inhibition of uptake of norepinephrine
[3] = co-administered with dextromethorphan

norepinephrine transporter, sequence (P23975 whole entry, species assumed): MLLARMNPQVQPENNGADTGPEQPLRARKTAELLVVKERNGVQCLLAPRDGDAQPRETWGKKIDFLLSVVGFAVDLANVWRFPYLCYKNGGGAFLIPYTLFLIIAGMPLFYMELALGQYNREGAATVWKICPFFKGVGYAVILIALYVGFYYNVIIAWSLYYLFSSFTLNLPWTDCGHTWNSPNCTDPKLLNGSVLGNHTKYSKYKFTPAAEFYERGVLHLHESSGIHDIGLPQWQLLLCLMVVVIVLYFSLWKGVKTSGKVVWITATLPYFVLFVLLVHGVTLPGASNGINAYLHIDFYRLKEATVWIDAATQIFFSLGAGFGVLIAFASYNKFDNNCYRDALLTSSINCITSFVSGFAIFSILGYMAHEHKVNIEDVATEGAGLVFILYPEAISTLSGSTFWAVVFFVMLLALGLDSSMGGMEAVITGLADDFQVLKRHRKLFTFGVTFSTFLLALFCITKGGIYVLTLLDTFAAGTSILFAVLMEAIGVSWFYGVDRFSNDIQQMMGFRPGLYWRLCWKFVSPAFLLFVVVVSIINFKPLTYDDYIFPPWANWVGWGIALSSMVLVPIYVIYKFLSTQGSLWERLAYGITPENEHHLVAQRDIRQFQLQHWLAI

SMILES	Ki [1] [µM]	Ki [2] [µM]	Ki (sigma-1) [µM]	Ki (uptake of norepinephrine) [µM]	effect on dextromethorphan in the blood [3]
COc1ccc2c(c1)[C@]13CCCC[C@@H]1[C@H](C2)N(C)CC3 [DM, (+)-3-methoxy-17-methyl-(9α,13α,14α)-morphinan]	13	1.5	0.2	0.24	
C=C[C@H]1C[N@@]2CC[C@H]1C[C@@H]2[C@@H](O)c1ccnc2ccc(OC)cc12 [Quinidine]					greatly increases the quantity of dextromethorphan circulating in the blood
